The target of test [1] is Xanthine dehydrogenase/oxidase (Homo sapiens, UniProt P47989). Description: Inhibition of Xanthine oxidase (unknown origin) using xanthine as substrate preincubated for 3 mins followed by substrate addition measured every 15 secs for 7 mins by spectrophotometry.
Another test concerns RAW264.7. Description: Antioxidant activity in LPS induced mouse RAW264.7 cells assessed as superoxide anion scavenging activity at 10 uM after 24 hrs by HE probe based HPLC-MS analysis relative to control. The test is classed as functional.
Test [2] in a line: Antioxidant activity assessed as DPPH radical scavenging activity incubated for 30 mins under dark conditions by spectrophotometry. The test is classed as functional.

pIC50: −log10 of the molar value.

Chain of Xanthine dehydrogenase/oxidase (P47989 whole entry): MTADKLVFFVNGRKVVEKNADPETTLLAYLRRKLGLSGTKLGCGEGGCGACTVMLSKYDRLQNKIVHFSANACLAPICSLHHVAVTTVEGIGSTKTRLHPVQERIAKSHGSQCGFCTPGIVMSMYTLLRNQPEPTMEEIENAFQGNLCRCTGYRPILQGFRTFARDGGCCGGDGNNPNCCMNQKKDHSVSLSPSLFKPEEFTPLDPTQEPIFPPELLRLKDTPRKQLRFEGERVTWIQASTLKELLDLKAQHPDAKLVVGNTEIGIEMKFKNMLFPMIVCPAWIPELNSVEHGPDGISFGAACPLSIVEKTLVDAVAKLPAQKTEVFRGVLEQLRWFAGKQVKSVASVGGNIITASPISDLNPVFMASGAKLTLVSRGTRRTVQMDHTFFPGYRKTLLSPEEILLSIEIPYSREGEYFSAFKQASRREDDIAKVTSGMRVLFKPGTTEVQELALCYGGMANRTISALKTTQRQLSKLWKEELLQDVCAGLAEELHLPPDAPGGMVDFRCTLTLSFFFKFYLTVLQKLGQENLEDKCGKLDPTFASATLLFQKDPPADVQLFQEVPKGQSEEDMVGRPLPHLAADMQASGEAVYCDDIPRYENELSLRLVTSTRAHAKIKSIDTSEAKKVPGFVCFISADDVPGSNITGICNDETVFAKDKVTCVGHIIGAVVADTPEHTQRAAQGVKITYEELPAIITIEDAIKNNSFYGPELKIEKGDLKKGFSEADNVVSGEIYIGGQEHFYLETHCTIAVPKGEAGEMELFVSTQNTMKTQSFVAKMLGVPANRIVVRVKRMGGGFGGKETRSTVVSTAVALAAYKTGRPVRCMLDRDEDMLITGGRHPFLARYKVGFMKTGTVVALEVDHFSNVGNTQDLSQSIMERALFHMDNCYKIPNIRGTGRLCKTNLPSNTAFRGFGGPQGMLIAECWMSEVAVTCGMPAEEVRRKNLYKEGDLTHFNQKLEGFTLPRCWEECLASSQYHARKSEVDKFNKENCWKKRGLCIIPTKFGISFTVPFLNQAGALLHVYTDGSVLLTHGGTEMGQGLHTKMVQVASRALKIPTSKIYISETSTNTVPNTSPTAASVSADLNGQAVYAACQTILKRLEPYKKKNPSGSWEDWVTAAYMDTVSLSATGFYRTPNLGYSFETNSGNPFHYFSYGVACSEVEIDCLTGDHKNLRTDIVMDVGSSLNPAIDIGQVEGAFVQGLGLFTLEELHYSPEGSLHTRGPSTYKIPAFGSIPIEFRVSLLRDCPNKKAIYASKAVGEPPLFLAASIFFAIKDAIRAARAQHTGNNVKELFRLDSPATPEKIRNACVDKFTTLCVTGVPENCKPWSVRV

As a reminder, the pIC50 is −log10 of the IC50, conventionally taken in molar units. Turning to `O=C(/C=C/c1ccc(O)c2oc(-c3ccc(O)c(O)c3)cc12)O[C@H](Cc1ccc(O)c(O)c1)C(=O)O`, the figures for the pIC50 in test [1] and in test [2] were 5.08 and 5.16, respectively. Moreover, the Activity with RAW264.7 is given as 37.82%.

Regarding `COC(=O)[C@H](Cc1ccc(O)c(O)c1)NC(=O)/C=C/c1ccc(O)c2oc(-c3ccc(O)c(O)c3)cc12`, the Activity in the test with RAW264.7 is 78.59%.

With `COC(=O)[C@@H](Cc1ccc(O)c(O)c1)NC(=O)/C=C/c1ccc(O)c2oc(-c3ccc(O)c(O)c3)cc12`, in the test with RAW264.7, the Activity is on record as 74.16%. Take VITAMIN E: the Activity in the test with RAW264.7 was found to be 53.2%. Consider `COC(=O)[C@H](Cc1ccccc1)NC(=O)/C=C/c1ccc(OC)c2oc(-c3ccc(OC)c(OC)c3)cc12`, for which the pIC50 in test [1] is under 4.22; in test [2] it was under 4.00.

For `O=C(/C=C/c1ccc(O)c2oc(-c3ccc(O)c(O)c3)cc12)N[C@@H](Cc1ccc(O)cc1)C(=O)O`, in the test with RAW264.7, the Activity was determined as 83.41%. As for `O=C(/C=C/c1ccc(O)c2oc(-c3ccc(O)c(O)c3)cc12)N[C@@H](Cc1ccccc1)C(=O)O`, the Activity in the test with RAW264.7 is recorded as 81.27%. On to `O=C(/C=C/c1ccc(O)c2oc(-c3ccc(O)c(O)c3)cc12)N[C@H](Cc1ccc(O)c(O)c1)C(=O)O`, for which the Activity with RAW264.7 came to 80.81%. For `COC(=O)[C@H](C)NC(=O)/C=C/c1ccc(O)c2oc(-c3ccc(O)c(O)c3)cc12`, the Activity in the test on RAW264.7 turned out to be 60.54%. For the compound `COC(=O)[C@@H](Cc1c[nH]c2ccccc12)NC(=O)/C=C/c1ccc(OC)c2oc(-c3ccc(OC)c(OC)c3)cc12`, the values for the pIC50 in test [1] and in test [2] were under 4.22 and under 4.00, respectively. Take `C[C@H](NC(=O)/C=C/c1ccc(O)c2oc(-c3ccc(O)c(O)c3)cc12)C(=O)O`: the Activity in the test with RAW264.7 was found to be 41.65%. As for `COC(=O)[C@H](C)NC(=O)/C=C/c1ccc(OC)c2oc(-c3ccc(OC)c(OC)c3)cc12`, the negative-log IC50 (pIC50) is under 4.22 in test [1] and under 4.00 in test [2].
